# Assay results as given in patent US20180280465A1 (EVER Neuro Pharma GmbH, priority 2015, published 2018).
# Like-named read-outs stand apart in the source and are kept apart here.
# Experiments:
# [1] = test system: NIH/3T3 murine fibroblasts; experiment: Resazurin-fibroblast-assay for assessment of cytotoxicity
# Description: The vitality of the fibroblasts was detected with the Resazurin Reagent (Resazurin sodium salt powder (Sigma Aldrich R7017-1G)). Vital and metabolically active cells reduce the non-fluorescent dye resazurin to the fluorescent dye resorufin by using NADH. The amount of fluorescence is proportional to the amount of vital cells. The fluorescence intensity at 535 nm (excitation)/595 nm (emission) is detected with a plate reader.
# Cells were cultured in a culture medium (DMEM high glucose) containing 10% FBS, 2 mM L-glutamine and 100 μg/ml penicilline/streptomycin under standard cell culture conditions (37° C., 5% CO2).
# The cells were then incubated with the respective solutions in the incubator for 4 h, 18 h, or 24 h (depending on the assay protocol). For every time point a separate 96-well plate was prepared. • Day 1 or 2: Readout—Determination of the fluorescence intensity (resazurin readout): For the determination of the fluorescence intensity (resazurin readout) the medium (100 μl/well) was removed and 100 μl/well resazurin was added (final concentration 0.5 mM; 2.2 ml resazurin stock solution prepared in PBS with a final concentration of 2.5 mM was diluted in 8.8 ml proliferation medium). In the wells serving for the blank control (no cells) 100 μl/well resazurin (0.5 mM) was added. The 96-well plate was then incubated for 1 h in the incubator. The fluorescence intensity was then detected at 535 nm (excitation)/595 nm (emission) with a plate reader.
# [2] = cited from earlier work
# [3] = in NaCl solution; cited from earlier work
structure (smiles),measurement,setting,value
"O=C1O[C@H]([C@@H](O)CO)C(O)=C1O [Ascorbate, (5R)-[(1S)-1,2-dihydroxyethyl]-3,4-dihydroxyfuran-2(5H)-one]",effect on the toxic effect of oxoapomorphine,[1],had no beneficial effect if the oxidative degradation product oxo-apomorphine was already present in the formulation
"N[C@@H](CCC(=O)N[C@@H](CS)C(=O)NCC(=O)O)C(=O)O [Glutathione, (2S)-2-amino-4-{[(1R)-1-[(carboxymethyl)carbamoyl]-2-sulfanylethyl]carbamoyl}butanoic acid]",effect on the toxic effect of oxoapomorphine,"[1]; NIH/3T3 cells, oxoapomorphine present",could abolish the toxic effect of oxoapomorphine
"CN1CCc2cccc3c2[C@H]1Cc1ccc(O)c(O)c1-3 [apomorphine, (6aR)-6-methyl-5,6,6a,7-tetrahydro-4H-dibenzo[de,g]quinoline-10,11-diol]",duration of effect (mean),[2]; single dose,40 min
same,incidence of nodule formation,"[2]; subcutaneous apomorphine infusion therapy, meta analysis",70%
same,patients terminating therapy because of irritations at the injection site,"[2]; subcutaneous infusion, within one year",70%
same,solubility,[3],< 10000 µg/mL
"CC(O)CO (stereo not drawn) [α-propylene glycol, propane-1,2-diol]",influence of isotonization agent on the cytotoxic effects in the cell culture system,[1]; NIH/3T3 fibroblasts,did not have any influence (negative or positive) on the cytotoxic effects
